From patent US20080260716A1, “Method and Composition for High Level Disinfection Employing Quaternary Ammonium Compounds” (priority 2004, published 2008)

Key:
C. sporogens spores = assay: AOAC sporicidal test, kill time; assay type: cell-based; conditions: for C. sporogens (no kill): 48 hrs
Mycobacterium terrae = assay: AOAC tuberculocidal test, kill time; assay type: cell-based
Description: These standards are based on the known or possible risk of contamination of a particular medical device by a particular micro-organism, the pathogenic nature of the organism and other principles in infection control. […] The test panels and criteria are different for “low”, “intermediate” or “high-level disinfection”. These terms are herein used in accordance with current Food and Drug Administration (“FDA”) criteria for levels of disinfection which are detailed in Premarket Notification [510(k)] Submissions for Liquid Chemical Sterilants and High Level Disinfectants FDA 1997: “A germicide that inactivates all microbial pathogens except large number of bacterial endospores when used according to labelling”. In brief, the FDA regulatory requirement for high level disinfectants includes as the most challenging test a 100% kill of Mycobacterium tuberculosis var. bovis (or a specific strain of a suitable surrogate, such as Mycobacterium terrae) in 400 p.p.m. hard water in the presence of 2% horse serum in a quantitative tuberculocidal test.
In the following tables unless otherwise specified references to “kill time” mean the time required to achieve complete kill as defined in the relevant AOAC test (more particularly identified in annexure 1). “No kill” means less than 2 log reduction from the initial population. Unless otherwise specified “QUAT” is benzalkonium chloride, specifically Gardiquat NC-50 (Albright & Wilson). Test points for vegetative bacteria (M. terrae) were 2, 5, 10, 20 and 60 mins. Test points for spores were 0.5, 1, 2, 4, 16, 24, 48 hours. The last column in each table indicates whether the tested combination satisfies the FDA requirement for high level disinfection (“HLD”) or fails to do so (“F”).
AOAC tests for determination of High level Disinfection as defined in current FDA criteria (detailed in “Premarket Notification [510(k)] Submissions for Liquid Chemical Sterilants and High Level Disinfectants FDA 1993”.):
AOAC Tuberculocidal Activity of Disinfectants
AOAC Ref No 965.12, AOAC Official Methods of Analysis (1995)

[1] = Table 3 Prior art, 0.25% QUAT, 25° C.
[2] = Table 6 unnumbered test, 2% QUAT + 0.2% Protease (Savinase 16 L), 25° C. + 1% borax
[3] = test 3.4, 0.25% QUAT, 62° C. + ultrasound
[4] = test 4.1, 2% QUAT, 25° C. + 1% borax
[5] = test 4.2, 5% QUAT, 25° C. + 1% borax
[6] = test 4.3, 1% QUAT, 40° C. + 1% borax
[7] = test 4.4, 2% QUAT, 40° C. + 1% borax
[8] = test 4.5, 5% QUAT, 40° C. + 1% borax
[9] = test 4.6, 2% QUAT, 50° C. + 1% borax
[10] = test 4.7, 5% QUAT, 50° C. + 1% borax
[11] = test 5.1, 1% QUAT, 40° C. + ultrasound 10 min each hour
[12] = test 5.2, 2% QUAT, 40° C. + ultrasound 10 min each hour
[13] = test 5.3, 5% QUAT, 40° C. + ultrasound 10 min each hour
[14] = test 5.4, 1% QUAT, 40° C. + ultrasound 10 min each hour
[15] = test 5.5, 2% QUAT + 1% borax, 40° C. + ultrasound 10 min each hour
[16] = test 5.6, 5% QUAT + 1% borax, 40° C. + ultrasound 10 min each hour
[17] = test 5.7, 2% QUAT + 1% borax + Protease, 40° C. + ultrasound 10 min each hour
[18] = test 6.1, 2% QUAT + 0.2% Protease (Savinase 16 L), 25° C.
[19] = test 6.2, 2% QUAT + 0.2% Protease (Savinase 16 L), 40° C.
[20] = test 6.3, 2% QUAT + 0.2% Protease (Savinase 16 L), 40° C. + 1% borax
[21] = test 6.4, 2% QUAT + 0.2% Protease (Savinase 16 L), 50° C.
[22] = test 6.5, 2% QUAT + 0.2% Protease (Savinase 16 L), 50° C. + 1% borax
[23] = test 6.6, 2% QUAT + 0.2% Protease (Savinase 16 L), 40° C. + ultrasound 10 min each hour + 1% borax
[24] = test 6.7, 2% QUAT + 1% borax + Protease, 40° C. + ultrasound 10 min each hour

With benzalkonium chloride [QUAT] the “Kill Time C. sporogens” value (C. sporogens spores; [1]) was greater than 24 h, the “Kill Time C. sporogens” value (C. sporogens spores; [2]) was greater than 48 h and the “C. sporogens (no kill)” value (C. sporogens spores; [2]) was “(no kill) (“No kill” means less than 2 log reduction from the initial population)”. The “kill time of C. sporogenes” value (C. sporogens spores; above 1% w/w of quat, 40° C.) was “less than 2 hours”, the “Kill Time C. sporogens” value (C. sporogens spores; test 1.1, 0.025% QUAT, 25° C.) was greater than 24 h and the “Kill Time C. sporogens” value (C. sporogens spores; test 1.2, 0.25% QUAT, 25° C.) was greater than 24 h. The “Kill Time C. sporogens” value (C. sporogens spores; test 2.1, 5% QUAT, 30° C.) was less than 2 h, the “Kill Time C. sporogens” value (C. sporogens spores; test 2.2, 1.0% QUAT, 40° C.) was less than 2 h and the “Kill Time C. sporogens” value (C. sporogens spores; test 2.3, 2.0% QUAT, 40° C.) was less than 2 h. The “Kill Time C. sporogens” value (C. sporogens spores; test 2.4, 5.0% QUAT, 40° C.) was less than 1 h, the “Kill Time C. sporogens” value (C. sporogens spores; test 2.5, 1.0% QUAT, 50° C.) was less than 2 h and the “Kill Time C. sporogens” value (C. sporogens spores; test 2.6, 2.0% QUAT, 50° C.) was less than 2 h. For the same substance, the “Kill Time C. sporogens” value (C. sporogens spores; test 2.7, 5.0% QUAT, 50° C.) was less than 1 h, the “Kill Time C. sporogens” value (C. sporogens spores; test 2.7, 5.0% QUAT, 50° C., listed as quat) was “less than one hour” and the “Kill Time C. sporogens” value (C. sporogens spores; test 2.8, 1.0% QUAT, 80° C.) was less than 1 h. The “Kill Time C. sporogens” value (C. sporogens spores; test 2.8, 1.0% QUAT, 80° C., listed as quat) was “less than one hour”, the “Kill Time C. sporogens” value (C. sporogens spores; test 3.1, 0.25% QUAT, 40° C.) was greater than 24 h and the “Kill Time C. sporogens” value (C. sporogens spores; test 3.2, 0.25% QUAT, 50° C.) was greater than 24 h. The “Kill Time C. sporogens” value (C. sporogens spores; test 3.3, 0.25% QUAT, 60° C.) was greater than 24 h, the “Kill Time C. sporogens” value (C. sporogens spores; [3]) was greater than 24 h and the “Kill Time C. sporogens” value (C. sporogens spores; test 3.5, 1.0% QUAT, 25° C.) was greater than 48 h. The “C. sporogens (no kill)” value (C. sporogens spores; test 3.5, 1.0% QUAT, 25° C.) was “(no kill) (“No kill” means less than 2 log reduction from the initial population)”, the “Kill Time C. sporogens” value (C. sporogens spores; test 3.6, 2.0% QUAT, 25° C.) was greater than 48 h and the “C. sporogens (no kill)” value (C. sporogens spores; test 3.6, 2.0% QUAT, 25° C.) was “(no kill) (“No kill” means less than 2 log reduction from the initial population)”. For the same substance, the “Kill Time C. sporogens” value (C. sporogens spores; test 3.7, 5.0% QUAT, 25° C.) was greater than 48 h, the “C. sporogens (no kill)” value (C. sporogens spores; test 3.7, 5.0% QUAT, 25° C.) was “(no kill) (“No kill” means less than 2 log reduction from the initial population)” and the “Kill Time C. sporogens” value (C. sporogens spores; test 3.8, 0.6%, 40° C.) was greater than 24 h. For the same substance, the “Kill Time C. sporogens” value (C. sporogens spores; test 3.9, 0.6% QUAT, 50° C.) was less than 16 h, the “Kill Time C. sporogens” value (C. sporogens spores; [4]) was greater than 48 h and the “C. sporogens (no kill)” value (C. sporogens spores; [4]) was “(no kill) (“No kill” means less than 2 log reduction from the initial population)”. The “Kill Time C. sporogens” value (C. sporogens spores; [5]) was greater than 48 h, the “C. sporogens (no kill)” value (C. sporogens spores; [5]) was “(no kill) (“No kill” means less than 2 log reduction from the initial population)” and the “Kill Time C. sporogens” value (C. sporogens spores; [6]) was less than 1 h. For the same substance, the “Kill Time C. sporogens” value (C. sporogens spores; [7]) was less than 1 h, the “Kill Time C. sporogens” value (C. sporogens spores; [8]) was less than 1 h and the “Kill Time C. sporogens” value (C. sporogens spores; [9]) was less than 1 h. The “Kill Time C. sporogens” value (C. sporogens spores; [10]) was less than 1 h, the “Kill Time C. sporogens” value (C. sporogens spores; [11]) was less than 2 h and the “Kill Time C. sporogens” value (C. sporogens spores; [12]) was less than 1 h. For the same substance, the “Kill Time C. sporogens” value (C. sporogens spores; [13]) was less than 1 h, the “Kill Time C. sporogens” value (C. sporogens spores; [14]) was less than 1 h and the “Kill Time C. sporogens” value (C. sporogens spores; [15]) was less than 1 h. For the same substance, the “Kill Time C. sporogens” value (C. sporogens spores; [16]) was less than 1 h, the “Kill Time C. sporogens” value (C. sporogens spores; [17]) was less than 1 h and the “Kill Time C. sporogens” value (C. sporogens spores; [18]) was greater than 48 h. For the same substance, the “C. sporogens (no kill)” value (C. sporogens spores; [18]) was “(no kill) (“No kill” means less than 2 log reduction from the initial population)”, the “Kill Time C. sporogens” value (C. sporogens spores; [19]) was less than 1 h and the “Kill Time C. sporogens” value (C. sporogens spores; [20]) was less than 1 h. For the same substance, the “Kill Time C. sporogens” value (C. sporogens spores; [21]) was less than 1 h, the “Kill Time C. sporogens” value (C. sporogens spores; [22]) was less than 1 h and the “Kill Time C. sporogens” value (C. sporogens spores; [23]) was less than 1 h. For the same substance, the “Kill Time C. sporogens” value (C. sporogens spores; [24]) was less than 1 h, the “Kill Time M. terrae” value (Mycobacterium terrae; [1]) was greater than 60 min and the “Kill Time M. terrae” value (Mycobacterium terrae; [2]) was greater than 60 min. The “kill time of Mycobacterium terrae” value (Mycobacterium terrae; above 1% w/w of quat, 40° C.) was “less than 5 mins”, the “Kill Time Mycobacterium terrae” value (Mycobacterium terrae; test 1.1, 0.025% QUAT, 25° C.) was greater than 60 min and the “Kill Time Mycobacterium terrae” value (Mycobacterium terrae; test 1.2, 0.25% QUAT, 25° C.) was greater than 60 min. The “Kill Time Mycobacterium terrae” value (Mycobacterium terrae; test 2.1, 5% QUAT, 30° C.) was less than 5 min, the “Kill Time Mycobacterium terrae” value (Mycobacterium terrae; test 2.2, 1.0% QUAT, 40° C.) was less than 5 min and the “Kill Time Mycobacterium terrae” value (Mycobacterium terrae; test 2.3, 2.0% QUAT, 40° C.) was less than 5 min. For the same substance, the “Kill Time Mycobacterium terrae” value (Mycobacterium terrae; test 2.4, 5.0% QUAT, 40° C.) was less than 5 min, the “Kill Time Mycobacterium terrae” value (Mycobacterium terrae; test 2.5, 1.0% QUAT, 50° C.) was less than 5 min and the “Kill Time Mycobacterium terrae” value (Mycobacterium terrae; test 2.6, 2.0% QUAT, 50° C.) was less than 5 min. The “Kill Time Mycobacterium terrae” value (Mycobacterium terrae; test 2.7, 5.0% QUAT, 50° C.) was less than 5 min, the “Kill Time Mycobacterium terrae” value (Mycobacterium terrae; test 2.8, 1.0% QUAT, 80° C.) was less than 5 min and the “Kill Time M. terrae” value (Mycobacterium terrae; test 3.1, 0.25% QUAT, 40° C.) was greater than 60 min. For the same substance, the “Kill Time M. terrae” value (Mycobacterium terrae; test 3.2, 0.25% QUAT, 50° C.) was greater than 60 min, the “Kill Time M. terrae” value (Mycobacterium terrae; test 3.3, 0.25% QUAT, 60° C.) was greater than 60 min and the “Kill Time M. terrae” value (Mycobacterium terrae; [3]) was greater than 60 min. For the same substance, the “Kill Time M. terrae” value (Mycobacterium terrae; test 3.5, 1.0% QUAT, 25° C.) was greater than 60 min, the “Kill Time M. terrae” value (Mycobacterium terrae; test 3.6, 2.0% QUAT, 25° C.) was greater than 60 min and the “Kill Time M. terrae” value (Mycobacterium terrae; test 3.7, 5.0% QUAT, 25° C.) was greater than 60 min. The “Kill Time M. terrae” value (Mycobacterium terrae; test 3.8, 0.6%, 40° C.) was greater than 60 min, the “Kill Time M. terrae” value (Mycobacterium terrae; test 3.9, 0.6% QUAT, 50° C.) was greater than 20 min and the “Kill Time M. terrae” value (Mycobacterium terrae; [4]) was greater than 60 min. The “Kill Time M. terrae” value (Mycobacterium terrae; [5]) was greater than 60 min, the “Kill Time M. terrae” value (Mycobacterium terrae; [6]) was less than 5 min and the “Kill Time M. terrae” value (Mycobacterium terrae; [7]) was less than 2 min. The “Kill Time M. terrae” value (Mycobacterium terrae; [8]) was less than 2 min, the “Kill Time M. terrae” value (Mycobacterium terrae; [9]) was less than 2 min and the “Kill Time M. terrae” value (Mycobacterium terrae; [10]) was less than 2 min. For the same substance, the “Kill Time M. terrae” value (Mycobacterium terrae; [11]) was less than 5 min, the “Kill Time M. terrae” value (Mycobacterium terrae; [12]) was less than 5 min and the “Kill Time M. terrae” value (Mycobacterium terrae; [13]) was less than 5 min. The “Kill Time M. terrae” value (Mycobacterium terrae; [14]) was less than 5 min, the “Kill Time M. terrae” value (Mycobacterium terrae; [15]) was less than 2 min and the “Kill Time M. terrae” value (Mycobacterium terrae; [16]) was less than 2 min. For the same substance, the “Kill Time M. terrae” value (Mycobacterium terrae; [17]) was less than 2 min, the “Kill Time M. terrae” value (Mycobacterium terrae; [18]) was greater than 60 min and the “Kill Time M. terrae” value (Mycobacterium terrae; [19]) was less than 5 min. For the same substance, the “Kill Time M. terrae” value (Mycobacterium terrae; [20]) was less than 2 min, the “Kill Time M. terrae” value (Mycobacterium terrae; [21]) was less than 5 min and the “Kill Time M. terrae” value (Mycobacterium terrae; [22]) was less than 2 min. The “Kill Time M. terrae” value (Mycobacterium terrae; [23]) was less than 2 min and the “Kill Time M. terrae” value (Mycobacterium terrae; [24]) was less than 2 min.
